Article PMC9920246, “Entinostat-Bortezomib Hybrids against Multiple Myeloma” (Molecules, 2023)
Like-named read-outs stand apart in the source and are kept apart here.

Legend:
[1] = test system: 3D co-culture spheroids containing RPMI 8226 cells and mesenchymal stem cells (MSC) in a 5:1 ratio; assay: Antiproliferative assay in 3D co-culture spheroids (CellTiter-Glo 3D, 48 h); assay type: cell-based, human; details: Homo sapiens, RPMI 8226 + MSC 5:1 spheroids, mean ± SD, n = 3
Method: The multiple myeloma human plasma cells RPMI 8226 were purchased from American Type Culture Collection (ATCC, Manassas, VA, USA) and cultured in RPMI 1640 medium (Gibco, Paisley, UK) supplemented with 50 µg/mL streptomycin sulfate, 50 U/mL penicillin G sodium salt (Gibco, Grand Island, NY, USA) and 10% fetal bovine serum (FBS) (Biowest, Nuaillé, France). […] Human MSC from the bone marrow were purchased from PromoCell and were cultured in Mesenchymal Stem Cell Growth Medium 2 (PromoCell, Heidelberg, Germany) supplemented with 100 μg/mL streptomycin sulfate and 100 U/mL penicillin G sodium salt.
RPMI 8226 cells and MSC were mixed in a 5:1 ratio. The cell mixture was centrifuged, and medium containing 20% collagen I (Gibco) adjusted to pH 7 was added to the cell pellet. Five μL drops were plated in each well of an ice-cold 96-well ultra-low attachment U-bottom plate (Corning, Kennebunk, MA, USA) and the plate was incubated for 30 min at 37 °C and 5% CO2 atmosphere. After the incubation, 200 μL of RPMI 1640 medium (Gibco) supplemented with 50 µg/mL streptomycin sulfate, 50 U/mL penicillin G sodium salt (Gibco) and 10% FBS (Biowest) was added to each well. The 3D spheroids were formed after 48 h.
RPMI 8226 and RPMI 8226/BTZ100 cells were seeded in 96-well plates (Costar, Kennebunk, MA, USA) at a density of 15,000 cells per well and directly treated for 72 h with the various compounds using increasing concentrations (0.31–2000 nM). […] Following the treatment, 100 μL of medium was carefully removed from each well and collagenase (1.5 μL of a 100 mg/mL solution, Sigma) was added. The plate was shaken at 37 °C for 10 min at 350 rpm. Then, 100 μL of CellTiter-Glo 3D reagent (Promega, Fitchburg, WI, USA) was added to each well. The plate was incubated for 5 min at 37 °C under agitation at 250 rpm, followed by 25 min at room temperature without agitation. Finally, the luminescence was measured using a Cytation 3 plate reader (BioTek). The percentage of cell proliferation and calculation of the IC50 value were determined as previously described. Each compound was tested in triplicate in three independent experiments.

RPMI 8226/BTZ100 cells = assay: cells; assay type: cell-based, human; details: for IC50: Homo sapiens, RPMI-8226, 72 h, read-out: IC50 Value Antiproliferative Activity RPMI 8226/BTZ100
[2] = Drug combination of Ent and BTZ, antiproliferative effect (Combenefit, CompuSyn); assay type: cell-based; details: read-out: IC50 in drug combination experiment
Method: Combinations were evaluated using Combenefit data analysis.
Statistical analysis was performed in GraphPad Prism 9 (GraphPad) using one-way ANOVA for the proteasome inhibition assay. Combenefit (Cancer Research UK Cambridge Institute, Cambridge, UK) and CompuSyn software were used for drug combination analyses. The CI was calculated through the Chou-Talalay method using Compusyn. Data are expressed as mean ± standard deviation (SD).

RPMI 8226 cells = assay: Antiproliferative assay (XTT, 72 h); assay type: cell-based, human; details: for IC50: Homo sapiens, RPMI 8226 cells, 72 h, XTT, mean ± SD, n = 3
HDAC = HDAC inhibitory activity in RPMI 8226 cells (MAL substrate, UHPLC-MS); assay type: cell-based, human; details: 10 µM, 8 h
Method: RPMI 8226 cells were seeded in 96-well plates (Costar) at a density of 15,000 cells per well in 25 µL of medium containing the HDAC substrate N-(4-methyl-7-aminocoumarinyl)-Nα-(t-butoxycarbonyl)-Nω-acetyllysineamide (21 µM, MAL, Sigma). The cells were directly treated with the compounds at 10 µM or with Ent (0.4–250 µM) for 8 h to obtain a final volume of 50 µL. […] Following the incubation, the reaction was stopped by adding 10 µL of 6X RIPA buffer, supplemented with protease inhibitor (Sigma). Then, 160 µL of cold acetonitrile were added and the plate was placed for 10 min at −80 °C. The plate was centrifuged at 5000× g for 10 min at 4 °C, and the supernatant was transferred into a UHPLC-adapted 96-well plate (Nunc 96-well plate conical bottom, ThermoFisher) and sealed. The substrate (MAL) and its deacetylated product (dMAL) were measured using a UHPLC-MS method as previously described. The percentage of HDAC inhibition is given by 100 − [(tested sample × 100/control sample)], and the dose-response curve of Ent was established.

26S proteasome = molecular target: T1, 26S proteasome (Homo sapiens, UniProt P28074); assay: Proteasome inhibitory activity (Suc-LLVY-amc) in RPMI 8226 cell lysate; assay type: biochemical; details: 26S proteasome in RPMI 8226 cell lysate, 30 min preincubation, Suc-LLVY-amc 100 µM, mean ± SD, n = 3; read-out: IC50 Value PI Activity
T1 sequence (P28074 60-263): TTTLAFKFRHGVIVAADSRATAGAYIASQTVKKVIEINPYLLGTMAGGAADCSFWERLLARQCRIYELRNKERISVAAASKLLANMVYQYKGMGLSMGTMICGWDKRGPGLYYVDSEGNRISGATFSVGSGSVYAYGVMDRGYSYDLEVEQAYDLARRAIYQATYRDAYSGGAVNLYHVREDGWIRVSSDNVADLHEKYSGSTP
Method: RPMI 8226 cells (1 × 10^6 cells/mL) were collected, centrifuged, and washed twice with cold PBS (Gibco). The supernatant was discarded, and 200 μL of ice-cold lysis buffer (NP40 cell lysis buffer (Invitrogen, Eugene, OR, USA), supplemented with 1 mM PMSF (Sigma) and protease inhibitor cocktail (Sigma), was added to the pellet. Cells were kept on ice for 30 min and vortexed every 10 min. Samples were then centrifuged at 4 °C for 10 min at 16,000× g. Supernatant containing the proteins was collected. Protein quantification was performed using the Coomassie (Bradford) Protein Assay Kit (ThermoFisher, Waltham, MA, USA) following the manufacturer instructions. In each well of a 96-well black plate (ThermoFisher), 10 µg of proteins were mixed with assay buffer (50 mM Tris-HCl, pH 7.5, 40 mM KCl, 5 mM MgCl2, 0.5 mM ATP, 1 mM DTT, 0.5 mg/mL BSA) in 180 µL total volume. […] The plate was then incubated for 30 min at 37 °C. After incubation, the reaction was started by adding the fluorometric peptide substrate Suc-LLVY-amc (Bio-Techne, Minneapolis, MN, USA) at a final concentration of 100 µM, except for the blank wells. Following 1 h incubation at 37 °C in the dark, the fluorescence signal was red (excitation: 380 nm, emission: 440–460 nm) using a Cytation 3 plate reader (BioTek). The percentage of 26S proteasome activity was measured by comparing the fluorescence of the sample treated with the vehicle control wells and multiplied by 100. The IC50 value was calculated as mentioned above, and each compound was tested in triplicate in three independent experiments.

[3] = ratio of IC50 in resistant vs. parental cells

| SMILES | IC50 [1] [nM] | Increased resistance (RPMI 8226/BTZ100 vs. RPMI 8226) (RPMI 8226/BTZ100 cells) [fold] | IC50 (RPMI 8226/BTZ100 cells) [nM] | IC50 [2] [nM] | IC50 (RPMI 8226 cells) [nM] | Inhibition of HDAC activity (HDAC) [%] | Increased resistance (RPMI 8226/BTZ100 vs. RPMI 8226) (RPMI 8226/BTZ100 cells; [3]) [fold] | IC50 (26S proteasome) [nM] | Fold less active than compound 3 in RPMI 8226 cells (RPMI 8226 cells; compared to compound 3) |
| --- | --- | --- | --- | --- | --- | --- | --- | --- | --- |
| CC(C)C[C@H](NC(=O)[C@H](Cc1ccccc1)NC(=O)c1cnccn1)B(O)O [BTZ, bortezomib] | 6.4 ± 1.6 | 116.8 | 245 ± 11.1 | 3.3 | 2.1 ± 0.4 | – | – | – | – |
| CC(C)C[C@H](NC(=O)[C@@H](Cc1ccccc1)NC(=O)c1ccc(C(=O)Nc2ccccc2N)cc1)B1OC2CC3CC(C3(C)C)[C@]2(C)O1 (stereo partly drawn) [Compound 2, N^1-(2-aminophenyl)-N^4-((2R)-1-(((1R)-3-methyl-1-((3aS)-3a,5,5-trimethylhexahydro-4,6-methanobenzo[d][1,3,2]dioxaborol-2-yl)butyl)amino)-1-oxo-3-phenylpropan-2-yl)terephthalamide] | 32.5 ± 7.5 | – | 112 ± 13 | – | 37.1 ± 2.9 | 50 | 3.0 | 9.5 ± 2.3 | ca. 4 times |
| CC(C)C[C@H](NC(=O)[C@@H](Cc1ccccc1)NC(=O)c1cnc(C(=O)Nc2ccccc2N)cn1)B1OC2CC3CC(C3(C)C)[C@]2(C)O1 (stereo partly drawn) [Compound 3, N^2-(2-aminophenyl)-N^5-((2R)-1-(((1R)-3-methyl-1-((3aS)-3a,5,5-trimethylhexahydro-4,6-methanobenzo[d][1,3,2]dioxaborol-2-yl)butyl)amino)-1-oxo-3-phenylpropan-2-yl)pyrazine-2,5-dicarboxamide] | 13.1 ± 6.9 | – | 158 ± 15.8 | – | 9.5 ± 1.4 | 33 | 16.6 | 27.2 ± 6.2 | – |
